Literature values as cited in patent US7029655B2, “Magnetic resonance imaging agents for in vivo labeling and detection of amyloid deposits” (California Institute of Technology, priority 2000, dated 2006).

Conditions: thermodynamic stability of the Gd(III) chelate

stability constant (K) / formation constant, logK | SMILES
22.4 | O=C([O-])CN(CCN(CC(=O)[O-])CC(=O)[O-])CCN(CC(=O)[O-])CC(=O)[O-].[Gd+3] [Gd(DTPA)^2−]
28.5 | O=C([O-])CN1CCN(CC(=O)[O-])CCN(CC(=O)[O-])CCN(CC(=O)[O-])CC1.[Gd+3] [Gd-DOTA]
